This note sets out measurements from article PMC6471062, “Suppression of the Ubiquitin Pathway by Small Molecule Binding to Ubiquitin Enhances Doxorubicin Sensitivity of the Cancer Cells” (Molecules, 2019).

The target in one series is USP5 (Homo sapiens). Kind of series: Deubiquitination assay, cleavage of GST-Ubiquitin-HA by USP5 (SDS-PAGE band intensity). The series is classed as biochemical. On the procedure:
(§1) For in vitro ubiquitination assays, 500 µM of ubiquitin was used for each ubiquitination reaction as described previously, in the absence or presence of 50–500 µM of CR. […] The generation of GST-ubiquitin from GST-Ubiquitin-HA as the mobility shifts were analyzed on 12.5% SDS-PAGE visualized by Coomassie blue staining. Band intensities were quantified by ImageJ [55] and used to generate the IC50 curves (log inhibitor vs. normalized response with variable slope) by GraphPad Prism version 6.0 for Windows (GraphPad Software, San Diego, CA, USA, www.graphpad.com).

Series [1] can be described thus: Cell membrane permeability (inferred from intracellular action). The note with it: in contrast to CSB6B; inferred from intracellular effect on ubiquitination.
In another series the test system is HCT116 cells. The series is described as follows: Luminogenic caspase activity assay (Caspase Glo 3/7), HCT116. In kind it is cell-based. The note with it: 10 µM CR or 5 µM NSC697923 with Dox. On the procedure: (§2) Figure 7 CR enhances Dox sensitivity of cancer cells. (a,b) Enhancement of Dox-induced apoptosis of cancer cells by CR treatment. Dox–induced apoptosis of H1299 (a) and HCT116 (b) was quantified by colorimetric cell viability after treating 10 µM CR for 12 h followed by 12h treatment of Dox (0.0–5.0 µM). […] Caspase activity was quantified by luminogenic caspase activity assay. […] All error bars represent the standard deviation from at least four independent experiments. Statistical significance was calculated by the Student’s t-test (** p < 0.01, *** p < 0.001).
(§3) Cell viability assays were performed as described previously. For the caspase assays, the media were removed, and cells were lysed in 200 µL lysis buffer containing 50 µL Caspase Glo 3/7 solution and incubated for 15 min. Results were observed by measuring the luminescence signal using KOMM-Nr (Berthold Technologies, Bad Wildbad, Germany) and normalized with the total protein concentration measured by the Bradford assay. […]
(§4) Figure S8. NSC697923 enhances Dox sensitivity of cancer cells. (a, b) Effect of NSC697923 to cancer cells’ viability in Dox treatment . Dox–induced cell death of H1299 ( a) and HCT116 ( b) was quantified by colorimetric cell viability assay after treating 5 µM NSC697923 for 12 h followed by 12h treatment of Dox (0.0 […]
(§5) NSC697923. Caspase activity was quantified by luminogenic caspase activity assay. […]

Series [2] concerns H1299 cells. The series is described as follows: Luminogenic caspase activity assay (Caspase Glo 3/7), H1299. In kind it is cell-based. The note with it: 10 µM CR or 5 µM NSC697923 with Dox. The method, then: as §2, §3, §4, §5
The target in a further series is ubiquitin (Homo sapiens, UniProt P0CG47). The series is described as follows: Intrinsic fluorescence quenching assay of ubiquitin. The note with it: 50 µM ubiquitin, 0–500 µM compound, ex 274 nm / em 305 nm; read-out: Kd, dissociation constant upon binding to ubiquitin. On the procedure:
Intrinsic fluorescence quenching assays were performed as described previously. Briefly, intrinsic fluorescence quenching of ubiquitin by indicated compounds was observed by measuring the excitation and emission wavelength at 274 nm and 305 nm respectively of the mixture of 50 µM purified ubiquitin and 0–500 µM compound. Data were fitted to nonlinear regression curves with the equation described previously. F = −∆ε·[PC] + Fo(3) b = (Po + Co + Kd)(4) c = Po·Co(5) [PC] = [b − (b^2 − 4·c)^1/2]/2(6) where Fo and F are the normalized fluorescence intensity of the mixture of ubiquitin without the compound and with different concentrations of the compound, respectively. ∆ε is a difference in the extinction coefficient of the compound between their free and complex forms. [PC] is the concentration of protein/compound complex. Po and Co are the added concentration of ubiquitin and the compound, respectively in each experiment. Kd is the dissociation constant.

Series [3] relates to H1299 cells. The series is described as follows: Dox-induced cell death, colorimetric cell viability, H1299. The note with it: 10 µM CR or 5 µM NSC697923 12 h, then Dox 1.25–5.0 μM 12 h. In kind it is cell-based. On the procedure: as §2
(§6) Cell viability assays were performed as described previously. For the caspase assays, the media were removed, and cells were lysed in 200 µL lysis buffer containing 50 µL Caspase Glo 3/7 solution and incubated for 15 min. Results were observed by measuring the luminescence signal using KOMM-Nr (Berthold Technologies, Bad Wildbad, Germany) and normalized with the total protein concentration measured by the Bradford assay. Data were analyzed using GraphPad Prism version 6.0 for Windows with two tail t-test for statistical data analysis […]
as §4
NSC697923. Caspase activity was quantified by luminogenic caspase activity assay. All error bars represent the standard deviation from at least 4 independent experiments. *, P<0.05; **, P<0.01; ***, P<0.001.

In the next series the test system is E2-25K. The series is described as follows: In vitro K48 polyubiquitination reaction with E2-25K. The series is classed as biochemical. The note with it: purified E2-25K, increasing CR (50–500 µM), 500 µM ubiquitin, 37 °C. The method, then: Figure 5 CR inhibits K48- and K63- polyubiquitination in vitro. (a) Interacting surface of ubiquitin when complex with E2-25K and Ubc13 compared with the surface used for CR binding. (b,c) CR inhibits K48- (b) and K63-ubiquitinations (c). First, mono ubiquitin was mixed with UBA1, E2-25K or complex Mms2/Ubc13, and 0–500 µM CR in the presence or absence of ATP regeneration system. Then the mixture was incubated at 37 °C for […]. The reaction was stopped by adding 5X SDS loading buffer and the results were analyzed with 15% SDS-PAGE.
as §1, with “CR. The reactions were incubated at 37 °C for 4 h and 16 h for K63- and K48 polyubiquitination respectively. The reaction was terminated by adding 5X SDS sampling buffer and results were subjected to 15% SDS-PAGE followed by Coomassie Blue staining for analyses.” for “CR.”

In series [4] the test system is H1299 cells. Kind of series: Cytotoxicity, cell viability assay. In kind it is cell-based. On the procedure:
as §6
Figure S7. Cytotoxicity of CR to cancer cells. H1299 cells were cultured in 96 -well plates. CR was added to final concentrations of 0.0 – 50.0 µM, and the cells were incubated for 24 h followed by cell viability assay. All error bars represent the standard deviation from at least 4 independent experiments. Statistical comparisons between groups were determined by Student’s t -test. If p -values are less than 0.05, they are statistically significant . NS, not […]
(1 picture or pasted object on this page, not shown here)

Another series addresses UCHL1 (Homo sapiens). Kind of series: Deubiquitination assay, cleavage of GST-Ubiquitin-HA by UCHL1 (SDS-PAGE band intensity). The series is classed as biochemical. On the procedure:
as §1

Structures are written as SMILES.

Sequence of USP5 (Homo sapiens) (P45974 2-858, other chains not shown): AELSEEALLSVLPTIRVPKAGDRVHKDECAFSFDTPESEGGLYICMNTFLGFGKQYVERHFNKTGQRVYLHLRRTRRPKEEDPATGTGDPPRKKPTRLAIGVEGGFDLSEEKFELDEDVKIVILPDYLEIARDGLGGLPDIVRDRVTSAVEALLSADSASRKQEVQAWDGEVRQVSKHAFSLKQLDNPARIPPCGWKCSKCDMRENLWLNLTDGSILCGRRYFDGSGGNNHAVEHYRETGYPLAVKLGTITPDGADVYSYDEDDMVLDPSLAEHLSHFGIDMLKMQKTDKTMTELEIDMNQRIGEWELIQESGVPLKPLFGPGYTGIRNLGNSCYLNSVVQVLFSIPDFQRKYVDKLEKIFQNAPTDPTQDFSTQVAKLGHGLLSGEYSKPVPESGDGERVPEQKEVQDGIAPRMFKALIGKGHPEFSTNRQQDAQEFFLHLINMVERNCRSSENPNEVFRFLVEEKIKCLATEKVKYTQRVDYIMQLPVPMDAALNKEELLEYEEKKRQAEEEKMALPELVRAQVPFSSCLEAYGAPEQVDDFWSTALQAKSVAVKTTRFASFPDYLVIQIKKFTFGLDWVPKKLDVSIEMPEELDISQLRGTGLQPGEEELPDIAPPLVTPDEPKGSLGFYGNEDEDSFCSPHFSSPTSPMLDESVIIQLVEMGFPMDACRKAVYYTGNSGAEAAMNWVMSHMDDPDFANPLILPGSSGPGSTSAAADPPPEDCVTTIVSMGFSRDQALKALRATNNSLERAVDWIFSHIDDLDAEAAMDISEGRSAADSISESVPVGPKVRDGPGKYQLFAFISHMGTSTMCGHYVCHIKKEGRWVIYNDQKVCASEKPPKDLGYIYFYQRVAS
Sequence of UCHL1 (Homo sapiens) (P09936 whole entry, other chains not shown): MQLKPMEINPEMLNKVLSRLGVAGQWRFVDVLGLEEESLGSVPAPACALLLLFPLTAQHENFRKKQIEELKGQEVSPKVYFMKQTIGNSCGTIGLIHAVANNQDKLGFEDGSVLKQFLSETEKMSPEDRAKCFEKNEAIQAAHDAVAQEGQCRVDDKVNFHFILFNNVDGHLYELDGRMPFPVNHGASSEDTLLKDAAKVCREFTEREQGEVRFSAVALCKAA

`Nc1c(/N=N/c2ccc(-c3ccc(/N=N/c4cc(S(=O)(=O)O)c5ccccc5c4N)cc3)cc2)cc(S(=O)(=O)O)c2ccccc12` [CR, Congo red]: the IC50 on USP5 (Homo sapiens) came out at 13.4 ± 2.64 µM; against UCHL1 (Homo sapiens) it was 26.9 ± 2.99 µM. Moreover, the Cell permeability result in [1] is “better cell permeability”. Besides, the “Effect on caspase activity of Dox-treated HCT116 cells” value with HCT116 cells was “Enhanced caspase activity”. Besides, in the series on H1299 cells [2], the “Effect on caspase activity of Dox-treated H1299 cells” value is recorded as “Enhanced caspase activity”. Moreover, the Kd at ubiquitin amounted to 14.4 ± 1.27 µM. For the same compound, in the series with H1299 cells [3], the “Effect on Dox-induced cell death, H1299” value is “significantly enhanced Dox-induced cell death”. Moreover, in the series on E2-25K, the “Inhibition of K48 polyubiquitination” value is “effectively inhibited by CR in a dose-dependent manner”. Besides, the “Effect on cell viability, compound alone” value in the series with H1299 cells [4] (H1299, CR 0.0–50.0 µM, 24 h) is listed as “does not affect”. The compound further registered a None-toxicity concentration in the series with H1299 cells [4] (determined by cytotoxicity assays) of 10 µM.
